Source: US10294202B2, “Pyrrolidinones as herbicides” (FMC Corporation, priority 2013, dated 2019)

Key:
Assay in all cases: Test E preemergence herbicide test
Parameters in all cases: key: 0 = no effect, 100 = complete control
[1] = tested on: velvetleaf; assay type: in vivo, Abutilon theophrasti
Source text: (§1) Seeds of plant species selected from corn (Zea mays), soybean (Glycine max), velvetleaf (Abutilon theophrasti), lambsquarters (Chenopodium album), wild poinsettia (Euphorbia heterophylla), pigweed, palmer (palmer pigweed, Amaranthus palmeri), waterhemp (common waterhemp, Amaranthus rudis), surinam grass (Brachiaria decumbens), crabgrass, large (large crabgrass, Digitaria sanguinalis), crabgrass, Brazil (Brazilian crabgrass, Digitaria horizontalis), panicum, fall (fall panicum, Panicum dichotomiflorum), foxtail, giant (giant foxtail, Setaria faberii), foxtail, green (green foxtail, Setaria viridis), goosegrass (Eleusine indica), johnsongrass (Sorghum halepense), ragweed (common ragweed, Ambrosia elatior), barnyardgrass (Echinochloa crus-galli), sandbur (southern sandbur, Cenchrus echinatus), arrowleaf […] rhombifolia), ryegrass, Italian (Italian ryegrass, Lolium multiflorum), dayflower, VA (Virginia dayflower, Commelina virginica), field bindweed (Convolvulus arvensis), morningglory (Ipomoea coccinea), nightshade (eastern black nightshade, Solanum ptycanthum), kochia (Kochia scoparia), nutsedge, yellow (yellow nutsedge, Cyperus esculentus), cocklebur (common cocklebur, Xanthium strumarium), smartweed (ladysthumb smartweed, Polygonum Persicaria) and beggarticks (hairy beggarticks, Bidens pilosa), were planted into a silt loam soil and treated preemergence with test chemicals formulated in a non-phytotoxic solvent mixture which included a surfactant. Treated plants and controls were maintained in a greenhouse for 21 days, after which time all species were compared to controls and visually evaluated. Plant response ratings, summarized in Table E, are based on a scale of 0 to 100 where 0 is no effect and 100 is complete control. A dash (-) response means no test result.

[2] = tested on: foxtail, green; assay type: in vivo, Setaria viridis
Source text: as §1

[3] = tested on: foxtail, giant; assay type: in vivo, Setaria faberii
Source text: as §1

[4] = tested on: sandbur; assay type: in vivo, Cenchrus echinatus
Source text: as §1

[5] = tested on: johnsongrass; assay type: in vivo, Sorghum halepense
Source text: as §1

[6] = tested on: corn; assay type: in vivo, Zea mays
Source text: as §1

[7] = tested on: goosegrass; assay type: in vivo, Eleusine indica
Source text: as §1

[8] = tested on: dayflower, VA; assay type: in vivo, Commelina virginica
Source text: as §1

With `O=C1NCC(c2ccc(C(F)(F)F)cc2)C1C(=O)Nc1ccc(F)c(F)c1F` (stereo not shown) [Compound 232] the “Plant response rating, Velvetleaf” value ([1]; 31 g ai/ha) was 0, the “Plant response rating, Velvetleaf” value ([1]; 62 g ai/ha) was 0 and the “Plant response rating, Velvetleaf” value ([1]; 125 g ai/ha) was 20. For the same compound, the “Plant response rating, Velvetleaf” value ([1]; 250 g ai/ha) was 80, the “Plant response rating, Foxtail, Green” value ([2]; 31 g ai/ha) was 80 and the “Plant response rating, Foxtail, Green” value ([2]; 62 g ai/ha) was 95. The “Plant response rating, Foxtail, Green” value ([2]; 125 g ai/ha) was 98, the “Plant response rating, Foxtail, Green” value ([2]; 250 g ai/ha) was 98 and the “Plant response rating, Foxtail, Giant” value ([3]; 31 g ai/ha) was 35. The “Plant response rating, Foxtail, Giant” value ([3]; 62 g ai/ha) was 90, the “Plant response rating, Foxtail, Giant” value ([3]; 125 g ai/ha) was 95 and the “Plant response rating, Foxtail, Giant” value ([3]; 250 g ai/ha) was 98. For the same compound, the “Plant response rating, Sandbur” value ([4]; 31 g ai/ha) was 35, the “Plant response rating, Sandbur” value ([4]; 62 g ai/ha) was 65 and the “Plant response rating, Sandbur” value ([4]; 125 g ai/ha) was 90. For the same compound, the “Plant response rating, Sandbur” value ([4]; 250 g ai/ha) was 90, the “Plant response rating, Johnsongrass” value ([5]; 31 g ai/ha) was 0 and the “Plant response rating, Johnsongrass” value ([5]; 62 g ai/ha) was 0. For the same compound, the “Plant response rating, Johnsongrass” value ([5]; 125 g ai/ha) was 0, the “Plant response rating, Johnsongrass” value ([5]; 250 g ai/ha) was 25 and the “Plant response rating, Corn” value ([6]; 31 g ai/ha) was 0. The “Plant response rating, Corn” value ([6]; 62 g ai/ha) was 0, the “Plant response rating, Corn” value ([6]; 125 g ai/ha) was 0 and the “Plant response rating, Corn” value ([6]; 250 g ai/ha) was 0. For the same compound, the “Plant response rating, Goosegrass” value ([7]; 31 g ai/ha) was 35, the “Plant response rating, Goosegrass” value ([7]; 62 g ai/ha) was 80 and the “Plant response rating, Goosegrass” value ([7]; 125 g ai/ha) was 85. For the same compound, the “Plant response rating, Goosegrass” value ([7]; 250 g ai/ha) was 95, the “Plant response rating, Dayflower, VA” value ([8]; 31 g ai/ha) was 0 and the “Plant response rating, Dayflower, VA” value ([8]; 62 g ai/ha) was 0. The “Plant response rating, Dayflower, VA” value ([8]; 125 g ai/ha) was 0 and the “Plant response rating, Dayflower, VA” value ([8]; 250 g ai/ha) was 10.
With `O=C1NCC(c2ccc(F)cc2)C1C(=O)Nc1ccccc1F` (racemic) [Compound 16] the “Plant response rating, Velvetleaf” value ([1]; 16 g ai/ha) was 0, the “Plant response rating, Velvetleaf” value ([1]; 31 g ai/ha) was 0 and the “Plant response rating, Velvetleaf” value ([1]; 62 g ai/ha) was 0. For the same compound, the “Plant response rating, Velvetleaf” value ([1]; 125 g ai/ha) was 0, the “Plant response rating, Velvetleaf” value ([1]; 250 g ai/ha) was 0 and the “Plant response rating, Foxtail, Green” value ([2]; 16 g ai/ha) was 0. The “Plant response rating, Foxtail, Green” value ([2]; 31 g ai/ha) was 0, the “Plant response rating, Foxtail, Green” value ([2]; 62 g ai/ha) was 10 and the “Plant response rating, Foxtail, Green” value ([2]; 125 g ai/ha) was 25. For the same compound, the “Plant response rating, Foxtail, Green” value ([2]; 250 g ai/ha) was 95, the “Plant response rating, Foxtail, Giant” value ([3]; 16 g ai/ha) was 0 and the “Plant response rating, Foxtail, Giant” value ([3]; 31 g ai/ha) was 0. For the same compound, the “Plant response rating, Foxtail, Giant” value ([3]; 62 g ai/ha) was 15, the “Plant response rating, Foxtail, Giant” value ([3]; 125 g ai/ha) was 25 and the “Plant response rating, Foxtail, Giant” value ([3]; 250 g ai/ha) was 95. For the same compound, the “Plant response rating, Sandbur” value ([4]; 16 g ai/ha) was 0, the “Plant response rating, Sandbur” value ([4]; 31 g ai/ha) was 0 and the “Plant response rating, Sandbur” value ([4]; 62 g ai/ha) was 35. The “Plant response rating, Sandbur” value ([4]; 125 g ai/ha) was 70, the “Plant response rating, Sandbur” value ([4]; 250 g ai/ha) was 95 and the “Plant response rating, Johnsongrass” value ([5]; 16 g ai/ha) was 0. The “Plant response rating, Johnsongrass” value ([5]; 31 g ai/ha) was 0, the “Plant response rating, Johnsongrass” value ([5]; 62 g ai/ha) was 0 and the “Plant response rating, Johnsongrass” value ([5]; 125 g ai/ha) was 0. The “Plant response rating, Johnsongrass” value ([5]; 250 g ai/ha) was 0, the “Plant response rating, Corn” value ([6]; 16 g ai/ha) was 0 and the “Plant response rating, Corn” value ([6]; 31 g ai/ha) was 0. The “Plant response rating, Corn” value ([6]; 62 g ai/ha) was 0, the “Plant response rating, Corn” value ([6]; 125 g ai/ha) was 0 and the “Plant response rating, Corn” value ([6]; 250 g ai/ha) was 0. For the same compound, the “Plant response rating, Goosegrass” value ([7]; 16 g ai/ha) was 0, the “Plant response rating, Goosegrass” value ([7]; 31 g ai/ha) was 0 and the “Plant response rating, Goosegrass” value ([7]; 62 g ai/ha) was 0. For the same compound, the “Plant response rating, Goosegrass” value ([7]; 125 g ai/ha) was 0, the “Plant response rating, Goosegrass” value ([7]; 250 g ai/ha) was 0 and the “Plant response rating, Dayflower, VA” value ([8]; 16 g ai/ha) was 0. For the same compound, the “Plant response rating, Dayflower, VA” value ([8]; 62 g ai/ha) was 0 and the “Plant response rating, Dayflower, VA” value ([8]; 125 g ai/ha) was 0.
`O=C1NCC(c2cccc(Br)c2)C1C(=O)Nc1ccccc1F` (stereo not shown) [Compound 66] was tested, and the “Plant response rating, Velvetleaf” value ([1]; 16 g ai/ha) was 0, the “Plant response rating, Velvetleaf” value ([1]; 31 g ai/ha) was 0 and the “Plant response rating, Velvetleaf” value ([1]; 62 g ai/ha) was 0. The “Plant response rating, Velvetleaf” value ([1]; 125 g ai/ha) was 0, the “Plant response rating, Velvetleaf” value ([1]; 250 g ai/ha) was 0 and the “Plant response rating, Foxtail, Green” value ([2]; 16 g ai/ha) was 0. For the same compound, the “Plant response rating, Foxtail, Green” value ([2]; 31 g ai/ha) was 0, the “Plant response rating, Foxtail, Green” value ([2]; 62 g ai/ha) was 0 and the “Plant response rating, Foxtail, Green” value ([2]; 125 g ai/ha) was 35. The “Plant response rating, Foxtail, Green” value ([2]; 250 g ai/ha) was 60, the “Plant response rating, Foxtail, Giant” value ([3]; 16 g ai/ha) was 0 and the “Plant response rating, Foxtail, Giant” value ([3]; 31 g ai/ha) was 0. The “Plant response rating, Foxtail, Giant” value ([3]; 62 g ai/ha) was 0, the “Plant response rating, Foxtail, Giant” value ([3]; 125 g ai/ha) was 98 and the “Plant response rating, Sandbur” value ([4]; 16 g ai/ha) was 0. The “Plant response rating, Sandbur” value ([4]; 31 g ai/ha) was 0, the “Plant response rating, Sandbur” value ([4]; 62 g ai/ha) was 0 and the “Plant response rating, Sandbur” value ([4]; 125 g ai/ha) was 0. For the same compound, the “Plant response rating, Sandbur” value ([4]; 250 g ai/ha) was 35, the “Plant response rating, Johnsongrass” value ([5]; 16 g ai/ha) was 0 and the “Plant response rating, Johnsongrass” value ([5]; 31 g ai/ha) was 0. For the same compound, the “Plant response rating, Johnsongrass” value ([5]; 62 g ai/ha) was 0, the “Plant response rating, Johnsongrass” value ([5]; 125 g ai/ha) was 0 and the “Plant response rating, Johnsongrass” value ([5]; 250 g ai/ha) was 0. The “Plant response rating, Corn” value ([6]; 16 g ai/ha) was 0, the “Plant response rating, Corn” value ([6]; 31 g ai/ha) was 0 and the “Plant response rating, Corn” value ([6]; 62 g ai/ha) was 0. For the same compound, the “Plant response rating, Corn” value ([6]; 125 g ai/ha) was 0, the “Plant response rating, Corn” value ([6]; 250 g ai/ha) was 0 and the “Plant response rating, Goosegrass” value ([7]; 16 g ai/ha) was 0. For the same compound, the “Plant response rating, Goosegrass” value ([7]; 31 g ai/ha) was 0, the “Plant response rating, Goosegrass” value ([7]; 62 g ai/ha) was 0 and the “Plant response rating, Goosegrass” value ([7]; 125 g ai/ha) was 0. The “Plant response rating, Goosegrass” value ([7]; 250 g ai/ha) was 0, the “Plant response rating, Dayflower, VA” value ([8]; 16 g ai/ha) was 0 and the “Plant response rating, Dayflower, VA” value ([8]; 31 g ai/ha) was 0. The “Plant response rating, Dayflower, VA” value ([8]; 62 g ai/ha) was 0, the “Plant response rating, Dayflower, VA” value ([8]; 125 g ai/ha) was 0 and the “Plant response rating, Dayflower, VA” value ([8]; 250 g ai/ha) was 0.
